According to patent publication US20120270237A9, “METHODS FOR THE IDENTIFICATION OF KINASE INTERACTING MOLECULES AND FOR THE PURIFICATION OF KINASE PROTEINS” (Cellzone AG, priority 2009, published 2012):

Experiments:
Test in all cases: Kinobeads competition binding, HL60 cell lysate
Parameters in all cases: endogenous in cells
Details in all cases: 10 μM free compound
AAK1 = AAK1 (Homo sapiens, UniProt Q2M2I8)
Summary of the method: (§1)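 Free compound 10 μM → HL60 lysate; affinity matrix with same compound immobilized, 2 h 4 °C; SDS elution, SDS-PAGE, in-gel trypsin; iTRAQ 114/117 labels vs 0.5% DMSO control; nano-LC-MS/MS, reporter-ion quantitation.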

AurB = AurB (Homo sapiens, UniProt Q96GD4)
Summary of the method: as §1

BTK = BTK (Homo sapiens, UniProt Q06187)
Summary of the method: as §1

CDK9 = CDK9 (Homo sapiens, UniProt P50750)
Summary of the method: as §1

CK2a2 = CK2a2 (Homo sapiens, UniProt P19784)
Summary of the method: as §1

GCK = molecular target: T1, GCK (Homo sapiens, UniProt Q12851)
T1 sequence (Q12851 1-820): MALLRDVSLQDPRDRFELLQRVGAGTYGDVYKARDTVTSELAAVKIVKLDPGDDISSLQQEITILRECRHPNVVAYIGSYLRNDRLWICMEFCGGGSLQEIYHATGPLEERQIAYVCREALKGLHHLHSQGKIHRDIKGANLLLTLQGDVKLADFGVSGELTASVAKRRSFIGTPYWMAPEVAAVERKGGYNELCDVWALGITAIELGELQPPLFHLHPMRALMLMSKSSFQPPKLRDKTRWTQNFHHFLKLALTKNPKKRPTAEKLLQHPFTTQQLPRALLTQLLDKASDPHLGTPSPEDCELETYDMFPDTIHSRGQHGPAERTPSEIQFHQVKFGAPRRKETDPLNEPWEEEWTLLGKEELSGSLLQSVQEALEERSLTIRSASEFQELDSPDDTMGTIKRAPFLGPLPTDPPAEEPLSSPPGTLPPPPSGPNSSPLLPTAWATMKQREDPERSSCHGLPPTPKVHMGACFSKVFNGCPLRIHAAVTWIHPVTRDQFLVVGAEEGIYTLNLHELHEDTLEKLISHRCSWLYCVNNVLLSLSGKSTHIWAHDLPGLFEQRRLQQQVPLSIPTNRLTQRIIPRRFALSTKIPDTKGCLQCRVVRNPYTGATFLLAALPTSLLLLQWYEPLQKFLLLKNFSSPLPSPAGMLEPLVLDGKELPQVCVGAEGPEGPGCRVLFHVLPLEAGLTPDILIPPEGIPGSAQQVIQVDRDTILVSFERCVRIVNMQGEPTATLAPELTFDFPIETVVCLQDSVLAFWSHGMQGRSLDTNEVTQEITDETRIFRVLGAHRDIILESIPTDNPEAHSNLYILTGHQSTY
Summary of the method: as §1

MARK3 = MARK3 (Homo sapiens, UniProt P27448)
Summary of the method: as §1

PAK4 = PAK4 (Homo sapiens, UniProt O96013)
Summary of the method: as §1

PYK2 = PYK2 (Homo sapiens, UniProt Q14289)
Summary of the method: as §1

SLK = SLK (Homo sapiens, UniProt Q9H2G2)
Summary of the method: as §1

STK33 = STK33 (Homo sapiens, UniProt Q9BYT3)
Summary of the method: as §1

YES = YES (Homo sapiens, UniProt P07947)
Summary of the method: as §1

**Q.** CS(=O)(=O)Nc1ccccc1Nc1nc(Nc2cccc(OCCN)c2)ncc1Cl [CZC31326, N-(2-(2-(3-(2-aminoethoxy)phenylamino)-5-chloropyrimidin-4-ylamino)phenyl)methanesulfonamide] was tested. Which inhibition at 10 µM (AAK1) did it give?
**A.** The inhibition at 10 µM was 97.8%.

**Q.** What about the inhibition at 10 µM (AurB) of the same molecule?
**A.** Its inhibition at 10 µM is 95%.

**Q.** And the Competition % (BTK)?
**A.** Its Competition % is 97.1%.

**Q.** And the inhibition at 10 µM (CDK9)?
**A.** Its inhibition at 10 µM is 98.2%.

**Q.** What about the inhibition at 10 µM (CK2a2) of the same molecule?
**A.** The inhibition at 10 µM was 97.7%.

**Q.** What about the inhibition at 10 µM (GCK) of the same molecule?
**A.** The inhibition at 10 µM was 96.5%.

**Q.** And the inhibition at 10 µM (MARK3)?
**A.** The inhibition at 10 µM was 97.2%.

**Q.** And the inhibition at 10 µM (PAK4)?
**A.** The inhibition at 10 µM was 97.5%.

**Q.** And the inhibition at 10 µM (PYK2)?
**A.** Its inhibition at 10 µM is 95.7%.

**Q.** And the inhibition at 10 µM (SLK)?
**A.** The inhibition at 10 µM was 97.5%.

**Q.** What about the inhibition at 10 µM (STK33) of the same molecule?
**A.** Its inhibition at 10 µM is 96.9%.

**Q.** And the inhibition at 10 µM (YES)?
**A.** Its inhibition at 10 µM is 91.1%.
